This note sets out measurements from patent US12419879B2, “Combination therapy for the treatment of pancreatic cancer” (Genentech, Inc., priority 2016, dated 2025).

For one experiment, the system named is KP4 cells. The experiment can be described thus: Small molecule inhibitor screen of KP4 cells in 2D monolayer and 3D spheroid cultures. Type of experiment: cell-based, human. To be noted: 2D monolayer vs 3D spheroid. How it is done: Cell viability assays were performed by treating cells with a dose titration (0.001 to 10 μM) or fixed dose (1 μM) of the various pharmacologic inhibitors for 72 hrs and measuring viability using CellTiter Glo (Promega). Bliss scores were calculated as described previously. (Borisy A A, Elliott P J, Hurst N W, Lee M S, Lehar J, Price E R, Systematic discovery of multicomponent therapeutics, Proceedings of the National Academy of Sciences of the United States of America, 2003; 100(13):7977-82, Epub 2003/06/12).
To compare how pancreatic cancer cells cultured in 2-dimensional (2D) and 3-dimensional (3D) cultures respond to various cancer therapeutic agents, we treated the KAS mutant PDAC cancer cell line KP4 with a panel of 203 small molecule inhibitors of cancer-relevant targets and known chemotherapeutics (Table 1).
For 3D cultures, described herein is a method to facilitate a relatively rapid “high-throughput” analysis. […] Their drug sensitivity pattern was also similar to previously described spheroids (FIGS. 28 & 29).

The next experiment concerns KP4 xenografts. Type of experiment: in vivo. How it is done:
(§1) All animal studies were carried out in compliance with National Institutes of Health Guide for the Care and Use of Laboratory Animals. […] Two xenograft models were used: the human PDAC-derived cell line KP4 and cells derived from tumors isolated from KPP GEMM mice. 5×10^6 cells were subcutaneously implanted into the right flanks of immune-deficient mice (Charles River Laboratories) without using any Matrigel. […] Tumor volumes were measured using Ultra-Cal IV calipers at the indicated intervals. To appropriately analyze the repeated measurement of tumor volumes from the same animals over time, a mixed modeling approach was used. (Jose Pinheiro D B, Saikat DebRoy, Deepayan Sarkar, R Core team. Linear and Nonlinear mixed effects models. Package ‘nlme’2008). This approach addresses both repeated measurements and modest dropouts due to any non-treatment-related deaths of animals before the study end. Cubic regression splines were used to fit a non-linear profile to time courses of log2 tumor volume at each dose level. These non-linear profiles were then related to the dose within the mixed model.
(§2) To determine the uncertainty intervals (UIs) for % TGI, the fitted curve and the fitted covariance matrix were used to generate a random sample as an approximation to the distribution of % TGI. […] The reported UIs were the values for which 95% of the time the recalculated values of % TGI would fall in this region given the fitted model. The 2.5 and 97.5 percentiles of the simulated distribution were used as the upper and lower UIs. Tumor growth inhibition >60% was considered meaningful. (Wong H, Choo E F, Alicke B, Ding X, La H, McNamara E, Antitumor activity of targeted and cytotoxic agents in murine subcutaneous tumor models correlates with clinical response, Clinical Cancer Research: an official journal of the American Association for Cancer Research, 2012; 18(14):3846-55. Epub 2012/06/01).
(§3) Plotting was performed and generated using R, version 2.8.1 (R Development Core Team 2008; R Foundation for Statistical Computing; Vienna, Austria) and Excel, version 12.0.1 (Microsoft Corporation). Data were analyzed using R, version 2.8.1, and the mixed models were fit within R using the nlme package, version 3.1-89 (41).

In a further experiment the test system is KPP xenografts. In kind it is in vivo. Conditions: cobimetinib 5 mg/kg and/or ponatinib 30 mg/kg, PO, QD; for Tumor volume (last day): in mm³ (unit assumed). How it is done:
as §1, §2, §3

In another experiment the test system is PDAC cell lines. The experiment can be described thus: Cell viability assay (CellTiter Glo) with Bliss analysis in PDAC cell lines, 2D and 3D. In kind it is cell-based, human. On the procedure: Cell viability assays were performed by treating cells with a dose titration (0.001 to 10 μM) or fixed dose (1 μM) of the various pharmacologic inhibitors for 72 hrs and measuring viability using CellTiter Glo (Promega). Bliss scores were calculated as described previously.
For orientation: ATP-based viability assays read luminescence as a measure of living cells.

The test system of experiment [1] is PDGFRα, S6 and STAT3 activation. The experiment can be described thus: Western blot of signaling proteins in PDAC cells (2D and 3D). Type of experiment: cell-based, human. Conditions: KP4 cells. On the procedure:
Cells were seeded in 10 cm dishes and treated with 1 μM of small molecule inhibitors for 24 hrs. Cell lysates were prepared in RIPA lysis buffer (Thermo Scientific) containing a protease inhibitor cocktail (Thermo Scientific), SDS-PAGE was performed and proteins were transferred to nitrocellulose membranes. Immunoblotting was performed using standard methods. Protein bands were quantified using ImageJ software. Primary antibodies: p-Erk, p-STAT3, p-S6, total-S6, p-PDGFRα, p-PDGFRβ, p-RSK3, cleaved PARP, Bcl-xL, Mcl, survivin, Rab11, p-Akt, β-Actin, GAPDH (Cell Signaling), total-STAT3, total-PDGFRα (Santa Cruz Biotechnology), p-EphA7 (Gene Tex) and p-EphA2/3, EphA2/5 (MyBioscource).
A general note: Immunoblotting shows a protein as a band on a membrane.

In the next experiment the test system is IL-6 secretion. The experiment can be described thus: IL-6 secretion in 2D culture supernatants of PDAC cell lines. Type of experiment: cell-based, human. To be noted: multiple PDAC cell lines, 24 hrs.
The subject of experiment [2] is serum growth factors and cytokines. The experiment can be described thus: Luminex assay / ELISA of plasma samples of KP4 xenograft mice. Type of experiment: in vivo. (An ELISA detects its analyte on a solid surface through an enzyme-linked reagent.)
The subject of another experiment is xenograft tumors. The experiment can be described thus: Histopathology, IHC/IF staining and immunoblotting of grafted tumors. Type of experiment: in vivo, mice. How it is done:
Cells were seeded in 10 cm dishes and treated with 1 μM of small molecule inhibitors for 24 hrs. Cell lysates were prepared in RIPA lysis buffer (Thermo Scientific) containing a protease inhibitor cocktail (Thermo Scientific), SDS-PAGE was performed and proteins were transferred to nitrocellulose membranes. Immunoblotting was performed using standard methods. Protein bands were quantified using ImageJ software. Primary antibodies: p-Erk, p-STAT3, p-S6, total-S6, p-PDGFRα, p-PDGFRβ, p-RSK3, cleaved PARP, Bcl-xL, Mcl, survivin, Rab11, p-Akt, β-Actin, GAPDH (Cell Signaling), total-STAT3, total-PDGFRα (Santa Cruz Biotechnology), p-EphA7 (Gene Tex) and p-EphA2/3, EphA2/5 (MyBioscource). Immunohistochemistry and immunofluorescence were performed on 4 μm thick sections cut from formalin-fixed paraffin-embedded cell pellets, whole tissue sections, and TMA blocks (US Biomax, Inc.). Slides were deparaffinized and antigen unmasking was performed on PT Module (Thermo Scientific) with Target Retrieval Solution (Dako). […] Antibody binding was detected using Vecstatin ABC Elite horseradish peroxidase (Vector Laboratories) or PowerVision Poly-HRP (Leica Biosystems) and metal-enhanced 3, 3′-diaminobenzidine (Pierce) for IHC stainings and PowerVision Poly-HRP (Leica Biosystems) along with TSA kits (Life Technologies) for immunofluorescence staining. […]

[3] abbreviates: cobimetinib 5 mg/kg and/or ponatinib 30 mg/kg, PO, QD.

Take `Cn1cnc2c(F)c(Nc3ccc(Br)cc3Cl)c(C(=O)NOCCO)cc21` [AZD6244]: the “differential sensitivity of 3D versus 2D cultures” value (shortened to “differential sensitivity”) in the experiment with KP4 cells is listed as “more effective on 3D cultures than the 2D cultures”.

As for `O=C(c1ccc(F)c(F)c1Nc1ccc(I)cc1F)N1CC(O)([C@@H]2CCCCN2)C1` [Cobimetinib], the “effect on tumor growth (in words)” value with KP4 xenografts is on record as “ineffective as single agents”. Also, in the experiment with KP4 xenografts (setting [3]), the “% TGI (AUC vs. Vehicle)” value stood at 70%; the “TTP 2X (Time to Tumor Progression, 2X original volume)” value (from here on “TTP 2X”) was determined as 13; the Tumor volume (last day) turned out to be 532 mm³. For the same compound, in the experiment on KPP xenografts, the “% TGI (AUC vs. Vehicle)” value stood at 31%; the “TTP 2X” value was 6.5; the “Tumor volume (last day)” value turned out to be 917. Also, the “differential sensitivity” value in the experiment on KP4 cells is “more effective on 3D cultures than the 2D cultures”. Also, the “effect on cell viability as single agents” value in the experiment with PDAC cell lines is reported as “no effect on cell viability”. In experiment [1], the “activation of p-PDGFRα, p-STAT3 and p-S6 (western blot)” value is “increased level of activation”. Moreover, the “secretion of IL-6” value in the experiment with IL-6 secretion was “increased secretion of the IL-6 ligand”. Further, in experiment [2], the “serum growth factor and cytokine levels” value is “Significantly elevated serum levels of PDGFα, PDGFβ, and increased levels of IL-6”. Also, the “p-PDGFRα, p-STAT3 and pS6 in grafted tumors” value in the experiment with xenograft tumors is given as “induction”.

For `O=C(NOCCO)c1ccc2cncn2c1Nc1ccc(I)cc1F` [GDC-0623], in the experiment on KP4 cells, the “differential sensitivity” value was “more effective on 3D cultures than the 2D cultures”.

For the compound `CS(=O)(=O)N1CCN(Cc2cc3nc(-c4cccc5[nH]ncc45)nc(N4CCOCC4)c3s2)CC1` [GDC-0941], the “differential sensitivity” value with KP4 cells was “more effective on 3D cultures than the 2D cultures”.

Regarding `Cc1c(CN2CCN(C(=O)[C@H](C)O)CC2)sc2c(N3CCOCC3)nc(-c3cnc(N)nc3)nc12` [GDC-0980], the “differential sensitivity” value in the experiment on KP4 cells is “more effective on 3D cultures than the 2D cultures”.

Regarding `O=C(NOC[C@H](O)CO)c1ccc(F)c(F)c1Nc1ccc(I)cc1F` [PD901], in the experiment with KP4 cells, the “differential sensitivity” value is reported as “more effective on 3D cultures than the 2D cultures”.

Regarding `Cc1ccc(C(=O)Nc2ccc(CN3CCN(C)CC3)c(C(F)(F)F)c2)cc1C#Cc1cnc2cccnn12` [Ponatinib], in the experiment on KP4 xenografts, the “effect on tumor growth (in words)” value was “ineffective as single agents”. Further, in the experiment on KP4 xenografts (setting [3]), the “TTP 2X” value is given as 8.5 and the Tumor volume (last day) came out at 408 mm³. In the experiment on KPP xenografts, the “TTP 2X” value is reported as 7 and the “Tumor volume (last day)” value came to 1045. For the same compound, the “effect on cell viability as single agents” value in the experiment on PDAC cell lines is on record as “no effect on cell viability”.
